Activity calls are given as the source filed them. No cut-off for these calls is given here.
Columns and labels:
[1] = Aqueous solubility of the compound […] at room temperature by UV-vis spectrophotometric analysis; format: physicochemical
[2] = molecular target: T1, Protein deacetylase HDAC6 (Homo sapiens) (UniProt Q9UBN7); assay: Inhibition of HDAC6 in human LNCAP cells assessed as increase in tubulin acetylation at 5.43 to 20 uM after 4 hrs by Western blotting analysis; format: cell-based
T1 sequence (whole entry): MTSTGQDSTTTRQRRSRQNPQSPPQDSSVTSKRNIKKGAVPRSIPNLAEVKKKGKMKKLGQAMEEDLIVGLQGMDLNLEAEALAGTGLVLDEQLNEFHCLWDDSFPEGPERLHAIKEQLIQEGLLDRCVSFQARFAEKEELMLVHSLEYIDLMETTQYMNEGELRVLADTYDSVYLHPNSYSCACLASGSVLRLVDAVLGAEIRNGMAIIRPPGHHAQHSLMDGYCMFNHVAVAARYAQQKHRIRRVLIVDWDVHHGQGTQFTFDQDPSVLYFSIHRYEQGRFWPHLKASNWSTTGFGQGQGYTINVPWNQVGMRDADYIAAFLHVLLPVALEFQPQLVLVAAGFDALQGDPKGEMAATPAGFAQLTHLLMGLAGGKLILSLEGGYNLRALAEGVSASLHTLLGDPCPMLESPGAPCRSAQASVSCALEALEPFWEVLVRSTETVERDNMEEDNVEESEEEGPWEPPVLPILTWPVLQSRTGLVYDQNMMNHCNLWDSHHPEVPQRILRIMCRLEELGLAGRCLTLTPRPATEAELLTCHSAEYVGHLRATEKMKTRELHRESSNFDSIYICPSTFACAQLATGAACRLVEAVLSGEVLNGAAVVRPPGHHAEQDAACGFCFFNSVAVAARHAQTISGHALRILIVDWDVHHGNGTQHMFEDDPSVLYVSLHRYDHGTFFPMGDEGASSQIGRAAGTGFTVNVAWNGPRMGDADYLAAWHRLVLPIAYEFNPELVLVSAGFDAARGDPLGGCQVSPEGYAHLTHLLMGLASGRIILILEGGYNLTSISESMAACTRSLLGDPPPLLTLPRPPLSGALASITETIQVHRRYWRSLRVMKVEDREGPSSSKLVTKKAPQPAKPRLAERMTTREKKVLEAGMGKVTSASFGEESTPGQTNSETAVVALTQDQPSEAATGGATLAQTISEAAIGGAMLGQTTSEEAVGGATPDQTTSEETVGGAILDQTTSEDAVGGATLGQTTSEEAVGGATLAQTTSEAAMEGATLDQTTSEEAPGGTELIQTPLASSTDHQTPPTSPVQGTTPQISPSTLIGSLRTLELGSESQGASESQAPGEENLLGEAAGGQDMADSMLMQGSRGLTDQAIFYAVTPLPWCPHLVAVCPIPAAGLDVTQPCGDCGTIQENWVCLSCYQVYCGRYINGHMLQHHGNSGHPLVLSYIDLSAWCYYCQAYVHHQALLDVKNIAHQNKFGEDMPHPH

[3] = molecular target: Histone deacetylase 2 (Homo sapiens, UniProt Q92769); assay: Inhibition of HDAC2 (unknown origin) expressed in Escherichia coli BL21 (DE3) using GRKacYGC as substrate after 60 mins by SAMDI mass spectrometric analysis
[4] = molecular target: Collagenase 3 (Homo sapiens) (UniProt P45452); assay: Inhibition of MMP-13 (unknown origin) using omniMMP as fluorogenic substrate at 10 uM preincubated for 30 mins followed by substrate addition measured after 30 mins by fluorescence assay
[5] = molecular target: Matrix metalloproteinase-14 (Homo sapiens) (UniProt P50281); assay: Inhibition of MMP-14 (unknown origin) using omniMMP as fluorogenic substrate at 10 uM preincubated for 30 mins followed by substrate addition measured after 30 mins by fluorescence assay
[6] = molecular target: Matrix metalloproteinase-9 (Homo sapiens) (UniProt P14780); assay: Inhibition of MMP-9 (unknown origin) using omniMMP as fluorogenic substrate at 10 uM preincubated for 30 mins followed by substrate addition measured after 30 mins by fluorescence assay
[7] = molecular target: T2, Matrilysin (Homo sapiens) (UniProt P09237); assay: Inhibition of MMP-7 (unknown origin) using omniMMP as fluorogenic substrate at 10 uM preincubated for 30 mins followed by substrate addition measured after 30 mins by fluorescence assay
T2 sequence (whole entry): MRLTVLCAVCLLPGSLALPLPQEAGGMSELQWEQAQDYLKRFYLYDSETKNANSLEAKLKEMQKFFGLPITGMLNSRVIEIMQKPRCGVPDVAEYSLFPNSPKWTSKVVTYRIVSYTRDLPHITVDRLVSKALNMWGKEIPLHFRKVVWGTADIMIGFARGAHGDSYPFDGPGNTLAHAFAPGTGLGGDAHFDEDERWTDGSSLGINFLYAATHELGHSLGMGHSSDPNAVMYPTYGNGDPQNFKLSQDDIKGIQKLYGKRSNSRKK

[8] = molecular target: Stromelysin-1 (Homo sapiens) (UniProt P08254); assay: Inhibition of MMP-3 (unknown origin) using omniMMP as fluorogenic substrate at 10 uM preincubated for 30 mins followed by substrate addition measured after 30 mins by fluorescence assay
[9] = molecular target: 72 kDa type IV collagenase (Homo sapiens) (UniProt P08253); assay: Inhibition of MMP-2 (unknown origin) using omniMMP as fluorogenic substrate at 10 uM preincubated for 30 mins followed by substrate addition measured after 30 mins by fluorescence assay
[10] = molecular target: T3, Interstitial collagenase (Homo sapiens) (UniProt P03956); assay: Inhibition of MMP-1 (unknown origin) using omniMMP as fluorogenic substrate at 10 uM preincubated for 30 mins followed by substrate addition measured after 30 mins by fluorescence assay
T3 sequence (whole entry): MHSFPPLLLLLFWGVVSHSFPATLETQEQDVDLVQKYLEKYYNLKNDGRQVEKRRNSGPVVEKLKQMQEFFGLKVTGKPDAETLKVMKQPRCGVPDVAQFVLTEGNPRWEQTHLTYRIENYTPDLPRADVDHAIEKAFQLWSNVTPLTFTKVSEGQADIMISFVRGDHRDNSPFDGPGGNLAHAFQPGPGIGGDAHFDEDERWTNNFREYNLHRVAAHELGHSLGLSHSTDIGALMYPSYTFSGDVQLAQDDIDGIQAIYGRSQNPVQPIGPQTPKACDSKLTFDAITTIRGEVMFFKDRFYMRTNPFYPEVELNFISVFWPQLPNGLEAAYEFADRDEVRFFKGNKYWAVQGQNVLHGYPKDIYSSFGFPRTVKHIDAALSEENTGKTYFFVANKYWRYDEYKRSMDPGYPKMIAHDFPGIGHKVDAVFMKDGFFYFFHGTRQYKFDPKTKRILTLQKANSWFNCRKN

[11] = tested on: LNCaP; assay: Potency index, ratio of tubastatin A IC50 to compound IC50 for human LNCAP cells; format: functional
[12] = tested on: Vero; assay: Cytotoxicity against African green monkey Vero cells assessed as growth inhibition after 72 hrs by MTS assay; format: cell-based; details: Chlorocebus sabaeus
[13] = Cytotoxicity against human Jurkat gamma1 cells assessed as growth inhibition after 72 hrs by MTS assay; format: functional, cell-based
[14] = tested on: Jurkat; assay: cells; format: functional, cell-based; details: Homo sapiens, 72 h
Description: Cytotoxicity against human Jurkat cells assessed as growth inhibition after 72 hrs by MTS assay

[15] = tested on: DU-145; assay: cells; format: functional, cell-based; details: Homo sapiens, DU-145, 72 h
Description: Cytotoxicity against androgen-independent human DU145 cells assessed as growth inhibition after 72 hrs by MTS assay

[16] = molecular target: T4, Histone deacetylase 8 (Homo sapiens, UniProt Q9BY41); assay: Inhibition of HDAC8 catalytic domain (unknown origin) expressed in Escherichia coli BL21 (DE3) using GRKacFGC as substrate after 60 mins by SAMDI mass spectrometric analysis
T4 sequence (Q9BY41 whole entry): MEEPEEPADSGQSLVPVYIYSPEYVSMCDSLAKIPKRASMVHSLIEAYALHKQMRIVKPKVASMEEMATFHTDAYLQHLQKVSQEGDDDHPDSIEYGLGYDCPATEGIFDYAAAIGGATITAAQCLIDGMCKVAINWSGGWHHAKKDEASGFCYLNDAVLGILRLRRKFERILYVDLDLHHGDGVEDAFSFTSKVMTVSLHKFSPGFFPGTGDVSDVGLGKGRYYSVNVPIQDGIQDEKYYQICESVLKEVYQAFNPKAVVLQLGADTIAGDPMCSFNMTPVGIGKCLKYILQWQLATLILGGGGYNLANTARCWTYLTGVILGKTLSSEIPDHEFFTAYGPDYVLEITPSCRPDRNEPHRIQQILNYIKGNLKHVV

[17] = molecular target: T5, Protein deacetylase HDAC6 (Homo sapiens, UniProt Q9UBN7); assay: Inhibition of HDAC6 (unknown origin) expressed in Escherichia coli BL21 (DE3) using GRKacYGC as substrate after 60 mins by SAMDI mass spectrometric analysis
T5 sequence (Q9UBN7 whole entry): T1 sequence (whole entry)

[18] = molecular target: Histone deacetylase 1 (Homo sapiens) (UniProt Q13547); assay: Inhibition of HDAC1 (unknown origin) expressed in Escherichia coli BL21 (DE3) using GRKacFGC as substrate at 10 uM after 60 mins by SAMDI mass spectrometric analysis relative to control
[19] = tested on: LNCaP; assay: cells; details: Homo sapiens, 72 h
Description: Cytotoxicity against androgen-dependent human LNCAP cells assessed as growth inhibition after 72 hrs by MTS assay

[20] = molecular target: T1, Protein deacetylase HDAC6 (Homo sapiens); assay: Inhibition of HDAC6 in human LNCAP cells assessed as increase in tubulin acetylation at 3.49 to 20 uM after 4 hrs by Western blotting analysis; format: cell-based

72 kDa type IV collagenase (Homo sapiens), sequence (P08253 110-660 limits assumed): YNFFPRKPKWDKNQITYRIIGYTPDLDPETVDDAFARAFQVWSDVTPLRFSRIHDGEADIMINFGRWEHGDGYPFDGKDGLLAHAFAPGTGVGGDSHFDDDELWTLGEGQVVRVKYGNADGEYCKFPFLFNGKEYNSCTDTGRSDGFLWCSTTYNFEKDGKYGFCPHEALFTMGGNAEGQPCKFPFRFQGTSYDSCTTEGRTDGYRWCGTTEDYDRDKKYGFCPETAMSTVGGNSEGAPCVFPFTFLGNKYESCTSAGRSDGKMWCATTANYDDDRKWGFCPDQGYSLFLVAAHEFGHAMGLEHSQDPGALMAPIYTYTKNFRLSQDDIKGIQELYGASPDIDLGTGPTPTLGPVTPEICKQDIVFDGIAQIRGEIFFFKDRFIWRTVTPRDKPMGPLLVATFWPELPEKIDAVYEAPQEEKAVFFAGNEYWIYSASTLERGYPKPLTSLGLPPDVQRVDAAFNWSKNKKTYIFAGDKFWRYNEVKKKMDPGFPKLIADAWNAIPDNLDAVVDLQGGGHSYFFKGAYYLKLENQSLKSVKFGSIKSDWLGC
Histone deacetylase 2, sequence (Q92769 whole entry): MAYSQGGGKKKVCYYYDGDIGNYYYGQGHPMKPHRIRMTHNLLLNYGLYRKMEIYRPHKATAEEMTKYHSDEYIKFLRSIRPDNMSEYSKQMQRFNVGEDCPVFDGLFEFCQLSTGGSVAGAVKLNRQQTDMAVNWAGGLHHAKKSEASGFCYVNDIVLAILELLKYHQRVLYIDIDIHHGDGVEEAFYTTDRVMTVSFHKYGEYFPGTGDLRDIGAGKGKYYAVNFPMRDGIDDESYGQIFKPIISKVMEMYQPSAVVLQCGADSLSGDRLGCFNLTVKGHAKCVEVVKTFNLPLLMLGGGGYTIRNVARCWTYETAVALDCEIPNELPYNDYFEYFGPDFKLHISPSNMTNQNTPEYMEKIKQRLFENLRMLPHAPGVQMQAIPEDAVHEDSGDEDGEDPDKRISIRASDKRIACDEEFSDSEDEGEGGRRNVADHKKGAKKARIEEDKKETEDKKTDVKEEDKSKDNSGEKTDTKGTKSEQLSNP
Stromelysin-1 (Homo sapiens), sequence (P08254 100-477 limits assumed): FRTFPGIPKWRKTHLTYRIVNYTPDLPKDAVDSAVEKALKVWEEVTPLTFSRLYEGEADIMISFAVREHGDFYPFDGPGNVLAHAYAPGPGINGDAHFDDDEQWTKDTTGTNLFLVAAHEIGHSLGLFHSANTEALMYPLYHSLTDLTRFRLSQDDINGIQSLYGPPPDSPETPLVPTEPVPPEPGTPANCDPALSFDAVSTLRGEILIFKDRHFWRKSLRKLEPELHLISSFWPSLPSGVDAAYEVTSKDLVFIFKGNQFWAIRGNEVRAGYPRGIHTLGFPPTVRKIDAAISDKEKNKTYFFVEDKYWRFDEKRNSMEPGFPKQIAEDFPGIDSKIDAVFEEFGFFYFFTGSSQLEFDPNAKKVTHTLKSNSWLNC
Matrix metalloproteinase-9 (Homo sapiens), sequence (P14780 whole entry): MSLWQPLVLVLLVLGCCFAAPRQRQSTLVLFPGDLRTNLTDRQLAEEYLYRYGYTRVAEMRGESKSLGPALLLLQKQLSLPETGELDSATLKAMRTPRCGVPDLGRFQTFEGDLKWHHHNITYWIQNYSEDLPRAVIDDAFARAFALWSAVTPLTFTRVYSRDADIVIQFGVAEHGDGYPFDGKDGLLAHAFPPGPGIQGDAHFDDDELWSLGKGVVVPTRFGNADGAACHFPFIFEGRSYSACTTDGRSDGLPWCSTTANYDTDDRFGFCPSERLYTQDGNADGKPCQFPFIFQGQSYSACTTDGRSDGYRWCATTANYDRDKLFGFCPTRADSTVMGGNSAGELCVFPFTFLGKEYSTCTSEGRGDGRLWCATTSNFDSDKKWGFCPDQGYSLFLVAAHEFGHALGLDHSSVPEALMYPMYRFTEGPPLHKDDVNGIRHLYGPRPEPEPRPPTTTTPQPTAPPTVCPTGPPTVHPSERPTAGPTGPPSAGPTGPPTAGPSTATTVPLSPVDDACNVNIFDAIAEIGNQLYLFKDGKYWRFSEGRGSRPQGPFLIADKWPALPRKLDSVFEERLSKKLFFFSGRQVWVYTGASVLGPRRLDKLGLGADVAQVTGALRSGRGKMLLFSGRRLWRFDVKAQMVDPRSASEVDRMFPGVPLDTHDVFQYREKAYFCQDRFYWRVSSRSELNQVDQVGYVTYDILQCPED
Histone deacetylase 1 (Homo sapiens), sequence (Q13547 whole entry): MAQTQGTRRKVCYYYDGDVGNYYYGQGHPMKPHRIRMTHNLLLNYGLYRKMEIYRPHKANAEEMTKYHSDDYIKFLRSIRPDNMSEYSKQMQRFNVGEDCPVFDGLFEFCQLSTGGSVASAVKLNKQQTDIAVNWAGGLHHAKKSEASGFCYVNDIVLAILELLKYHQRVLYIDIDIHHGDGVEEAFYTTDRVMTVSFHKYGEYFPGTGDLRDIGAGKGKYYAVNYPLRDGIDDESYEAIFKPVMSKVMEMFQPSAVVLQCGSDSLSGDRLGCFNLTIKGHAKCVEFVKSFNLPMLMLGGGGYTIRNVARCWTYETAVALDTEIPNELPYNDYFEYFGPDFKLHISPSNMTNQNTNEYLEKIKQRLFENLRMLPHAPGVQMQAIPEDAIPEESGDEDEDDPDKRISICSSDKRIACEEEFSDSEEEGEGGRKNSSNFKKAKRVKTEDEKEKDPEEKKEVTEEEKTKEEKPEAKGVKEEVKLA

SMILES	solubility [1]	inhibition [2]	IC50 [3] [µM]	inhibition [4]	inhibition [5]	inhibition [6]	inhibition [7]	inhibition [8]	inhibition [9]	inhibition [10]	Ratio IC50 [11]	IC50 [12] [µM]	IC50 [13] [µM]	IC50 [14] [µM]	IC50 [15] [µM]	IC50 [16] [µM]	IC50 [17] [µM]	inhibition [18] [%]	IC50 [19] [µM]	inhibition [20]
Oc1cccn(CCCCCn2cc(-c3ccccc3)nn2)c1=S	soluble	Active	5.84	Active	inactive	inactive	inactive	inactive	inactive	inactive	2	> 20	1.86	3.27	9.33	0.917	0.911	< 20	5.43	–
N#Cc1cccc(-c2cn(CCCCCn3cccc(O)c3=S)nn2)c1	soluble	–	3.68	Active	inactive	inactive	inactive	inactive	inactive	inactive	3.1	> 20	0.9	3.44	5.03	–	–	< 20	3.49	Active
